Tests used:
[1] = tested on: pterygium patients (pterygium vascularity); assay: Phase 2a clinical trial of nintedanib eye drop in pterygium patients; type: in vivo, human
Description: Nintedanib was formulated into an eye drop and tested in pterygium patients in a Phase 2a clinical trial to evaluate the safety and efficacy of nintedanib. The key efficacy endpoint is effects on pterygium vascularity.
The clinic trial was conducted in two stages. In stage 1, the safety, tolerability and pharmacokinetics were evaluated in a single dose escalating study. Three dose cohorts with 8 patients in each were evaluated. Cohort 1 began at the lowest concentration of 0.02% nintedanib (weight percent based on the total weight of the eye drop), followed by an increasing dose to 0.05% for Cohort 2 and then to 0.2% for Cohort 3.
In stage 2, the safety, tolerability and efficacy of the 0.2% formulation were evaluated in a randomized, double-masked, vehicle-controlled, parallel study with 28 days TID repeat ocular dosing of vehicle and 0.2% nintedanib. The patients were further followed up by 20 weeks of post-dosing observation. Ophthalmic and physical examinations were performed at screening, Day 1 and Week 2, 4, 8, 16, and 24. External photograph of the pterygium eye was taken using a digital camera and the pterygium vascularity was graded from these images at an independent image reading center. The primary objective is to evaluate ocular and systemic safety of nintedanib in pterygium patients that have moderate to severe pterygium vascularity. […]

[2] = tested on: Rosacea patients with moderate to severe persistent facial erythema; assay: Erythema study, Clinician Erythema Assessment (CEA) in rosacea patients; type: in vivo, human
Text: Rosacea patients with moderate to severe persistent facial erythema are selected for treatment. The erythema is graded according to the Clinician Erythema Assessment (CEA) scale with photonumeric guide. It has a five-point scale: 0: clear skin with no signs of erythema; 1: almost clear, slight redness; 2: mild erythema, definite redness; 3: moderate erythema, marked redness; 4: severe erythema, fiery redness. Patients with CEA […] are enrolled in the study.
The study is double-masked. There are 5 treatment groups for 5 cream formulations (vehicle, 0.2% nintedanib, 0.3% brimonidine, combo-1 [0.2% nintedanib and 0.3% brimonidine], and combo-2 [0.1% nintedanib and 0.15% brimonidine]) to be tested and each group will have about 20 patients. The patients are assigned to the groups in a way to make sure the base line average grade is similar among the groups. The formulations are dosed once daily for 4 weeks and the patients are further followed up for 8 weeks. The drug is administered by a physician on the first day of visit and then self-administered by the patient for the remaining 4 weeks. Patients are evaluated on day 1, week 2 and 4 during dosing. After the stop of dosing, patients are further followed up at week 8 and 12.
The effect on erythema is evaluated by taking pictures of the face. […] The tolerability of the formulations is also evaluated by assessing treatment related adverse events. The efficacy and tolerability data are analyzed by independent statisticians.

[3] = day 1 after dosing, cream formulations
[4] = week 1, 2 and 4, during dosing, cream once daily

| SMILES | safety and tolerability (stage 2) ([1]; 0.2% eye drop TID 28 days, 20 weeks post-dosing observation) | safety, single dose escalating study (stage 1) ([1]; eye drop 0.02%, 0.05% and 0.2%, single dose, 8 patients per cohort) | erythema grade after stop of treatment ([2]; after stop of dosing at week 4, week 8 and 12) | erythema grade reduction from baseline [2, 3] | erythema grade reduction from baseline [2, 4] | erythema grade versus baseline after stop of treatment ([2]; week 8) | erythema grade versus baseline after stop of treatment ([2]; week 12) |
| --- | --- | --- | --- | --- | --- | --- | --- |
| COC(=O)c1ccc2c(c1)NC(=O)/C2=C(\Nc1ccc(N(C)C(=O)CN2CCN(C)CC2)cc1)c1ccccc1 [Nintedanib, (Z)-3-(1-(4-(N-((4-methyl-piperazin-1-yl)-methylcarbonyl)-N-methyl-amino)-phenylamino)-1-phenyl-methylene]-6-methoxycarbonyl-2-indolinone] | excellent with no serious adverse events | No safety issues | remains lower than the baseline | does not change | about 1 grade |  |  |
| Brc1c(NC2=NCCN2)ccc2nccnc12 [brimonidine, (5-bromoquinoxalin-6-yl)-(4,5-dihydro-1H-imidazol-2-yl)-amine] |  |  |  | about 1 grade | reduction remains | slightly higher than baseline | returns to the baseline |

Reference: patent publication US11179388B2, “Topical composition for treating rosacea and a method for treating rosacea with the same” (ADS THERAPEUTICS LLC, priority 2017, dated 2021)
